According to patent US12128111B2, “Glyco-metal-organic frameworks-based hepatic targeted therapeutic drug and preparation method thereof” (Jiangnan University, priority 2019, dated 2024):

Legend:
[1] = system: Huh7 cells; test: Calcein-AM/PI live and dead staining, in vitro therapeutic effect; type: cell-based, human; conditions: 10 μg/mL DOX, 60 μg/mL PCN-224, 70 μg/mL DOX@PCN-224 or DOX@Gal-PCN-224
Description: (§1) The in vitro therapeutic effect of the inorganic nanomaterial DOX@Gal-PCN-224 was detected by the live and death staining method and the corresponding MTT experiment.
(§2) Human hepatoma cells Huh7 were inoculated in a laser confocal culture dish (35 mm) at the density of 8×10^4 per well. After culturing for 24 hours, the cells were incubated with a medium containing 10 μg/mL DOX, 60 μg/mL PCN-224, 70 μg/mL DOX@PCN-224 (with the drug loading ratio of 14.2, and the DOX content of about 10 μg/mL) or 70 μg/mL DOX@Gal-PCN-224 (with the drug loading ratio of 14.2, and the DOX content of about 10 μg/mL) respectively for 24 hours. Then the light group was irradiated with a 660 nm light source for 10 min. After incubating for 24 hours, Calcein-AM/PI live and dead co-staining was performed. Finally, the cells were observed under the confocal laser. After the same treatment, the therapeutic effect of each group was further quantified by the MTT experiment.

[2] = system: Huh7 cells; test: MTT in vitro therapeutic effect; type: cell-based, human; conditions: 10 μg/mL DOX, 60 μg/mL PCN-224, 70 μg/mL DOX@PCN-224 or DOX@Gal-PCN-224
Description: as §1, §2

[3] = system: subcutaneous solid tumor; test: Inhibition of tumor growth in subcutaneous solid tumor mouse models; type: in vivo, BALB/c nude mice; conditions: no laser; tail vein, DOX 2 mg/kg, PCN-224 12 mg/kg, DOX@PCN-224 and DOX@Gal-PCN-224 14 mg/kg; last day (day 21) versus saline
Description: To construct subcutaneous solid tumor mouse models, male BALB/c nude mice with the average weight of 14-17 g at the age of 4 weeks were inoculated with 0.1 ml of 6×10^6 cells/ml PBS at the right gluteus. After four weeks, when the tumor size exceeded 200 mm^3 (volume=0.52×tumor length×tumor width^2), the mice were divided into 2 groups with 5 mice in each group. The DOX@PCN-224-RhB (0.1 mL 0.4 mg/mL) and DOX@Gal-PCN-224-RhB (0.1 mL 0.4 mg/ml) were injected into the tail vein respectively. The fluorescence signal of RhB was detected by a small animal imager (Bruker In Vivo Xtreme II) at set time points (3, 6, 12, 24, 48 hours). Then the mice were sacrificed, the heart, liver, spleen, lung and kidney were isolated, and the RhB fluorescence signal of each organ was detected.
When the subcutaneous tumor size of the mice exceeded 50 mm^3, the mice were randomly divided into 9 groups with 5 mice in each group: (1) saline, (2) free DOX saline (2 mg/kg), (3) free DOX+660 nm laser (2 mg/kg), (4) PCN-224 (12 mg/kg), (5) PCN-224+660 nm laser (12 mg/kg), (6) DOX@PCN-224 (14 mg/kg), (7) DOX@PCN-224+660 nm laser (14 mg/kg), (8) DOX@Gal-PCN-224 (14 mg/kg), and (9) DOX@Gal-PCN-224+660 nm laser (14 mg/kg). […] At the specified time points (days 3, 6, 9, 12, 15, 18, and 21), the tumor volume and mouse body weight of the experimental groups were measured. […]

Question: What does the source list for `COc1cccc2c1C(=O)c1c(O)c3c(c(O)c1C2=O)C[C@@](O)(C(=O)CO)C[C@@H]3O[C@H]1C[C@H](N)[C@H](O)[C@H](C)O1` [DOX, doxorubicin]?
Answer: live and dead staining (red fluorescence = dead cells, apoptosis) ([1]; Huh7, 660 nm light 10 min): only sporadic red fluorescence; live and dead staining (red fluorescence = dead cells, apoptosis) ([1]; Huh7, no light): only sporadic red fluorescence; Cell viability ([2]; Huh7, + 660 nm laser 10 min): 79%; Cell viability ([2]; Huh7, no laser): 82%; Tumor inhibition efficiency [3]: 49.8%
